Measured values from US20230029194A1, “MACROCYLIC SULFONYL DERIVATIVES MCL-1 INHIBITORS” (Janssen Pharmaceutica NV, priority 2019, published 2023).
Where two headings read alike, the source gives them in different places.

How the values were obtained:
MOLP8 cells = assay: MOLP8 CellEvent Caspase-3/7 Green live-cell IncuCyte apoptosis assay; format: cell-based, human; settings: averaged, number of independent runs in brackets
Protocol: (§1) MCL-1 is a regulator of apoptosis and is highly over-expressed in tumor cells that escape cell death. The assay evaluates the cellular potency of small-molecule compounds targeting regulators of the apoptosis pathway, primarily MCL-1, Bfl-1, Bcl-2, and other proteins of the Bcl-2 family. Protein-protein inhibitors disrupting the interaction of anti-apoptotic regulators with BH3-domain proteins initiate apoptosis.
Activation of the apoptotic pathway was measured using the CellEvent™ Caspase-3/7 Green ReadyProbes™ Reagent (Thermo Fisher C10423, C10723). This assay produces a green fluorescent stain in cells that enter the apoptosis pathway. CellEvent® Caspase-3/7 Green reagent is a four amino acid peptide (DEVD) conjugated to a nucleic acid-binding dye that is non-fluorescent when not bound to DNA. The CellEvent® Caspase-3/7 Green reagent is intrinsically non-fluorescent, as the DEVD peptide inhibits binding of the dye to DNA. Upon activation of caspase-3/7 in apoptotic cells, the DEVD peptide is cleaved and the free dye can bind DNA, generating a bright green fluorescence. The activation of Caspase-3 and Caspase-7 is downstream of inhibition of MCL-1 or other apoptosis inhibiting proteins in cell lines that are dependent on them.
The live-cell readout on the IncuCyte permits tracking over time of the Caspase activation. […] The IncuCyte readout also allows one to normalize for cell number, as the suspension cells are hard to distribute evenly.
Signals were measured every 2 h for a duration of 22 h. The ratio of the Caspase mask to the Confluence mask, per image, as raw data, was calculated and the kinetic trace for every well was exported to Genedata Screener for analysis.
In Genedata Screener values for 6 h, 12 h, and 22 h from the kinetic traces were extracted. The values were normalized against negative controls (untreated cells). A standard dose-response analysis was performed on the normalized data.
The following data was reported at each of the following three aforementioned time points: (a) The dose-response curve, (b) The qAC50 and qAC50 Mode, and (c) Max Activity.
Cells were maintained in culture medium containing 10% Heat Inactivated (HI) FBS, 2 mM L-Glutamine and 50 μg/mL Gentamycin phenol red free RPMI-1640. Cells were split at 0.4 million/mL twice a week.
On Day 1, plates containing individual wells with test compounds at 10 mM concentration, 150 nL per well. The final concentrations range from […] to 10 pM compound (and no compound control) and compounds were thawed at room temperature for 1 hour. 25 μl of prewarmed medium was added into each well by multidrop (column 1, 3-22, 24), followed by addition of DMSO control (0.6% DMSO) in column 2. The plate was sealed using Breathe-Easy®) sealing membrane and shaken for 30 min at room temperature to dissolve the test compound(s) in medium. The plate was then kept in the incubator for 1 hour at 37° C., 5% CO2.
MOLP8 cells in medium at 40000/25 μl (20000/50 μl final in assay) were prepared with CellEvent™ Caspase-3/7 Green Detection Reagent at 4 μM (2 μM final in assay). Once prepared, the cells were added to the test compound plate in an amount of 20000 and the plate was immediately placed in the IncuCyte and imaging started using following settings: 10X objective, 2 s exposure time in green channel, interval of 2 h, acquisition stopped after 22 h.
For analysis in IncuCyte, a Basic Analysis protocol was defined to calculate the “confluence” and “caspase” areas from the “Phase” and “green” images, respectively, as follows: (a) Confluence: Segmentation Adjustment 1, Hole Fill 0, Adjust Size −2, No filters (b) Caspase: Top-Hat segmentation, Radius 10, Threshold 0.3 GCU, Edge Split On with sensitivity 0, Hole Fill 0, Adjust Size 1, and filter on a minimum Area of 20 μm. The analyzer is trained on a sufficient number of positive and negative control wells, as well as compound treated wells, verifying that the “confluence” layer detects both live and dead (condensed) cells. […]

[1] = tested on: MOLP-8 human multiple myeloma cell line; assay: MOLP8 Caspase-Glo 3/7 luminescent assay; format: cell-based; settings: MOLP8 cells, 2 hours incubation, 10% FBS assay media, 30 μM highest conc.; averaged over all runs on all batches
Excerpt: as §1
The Caspase-Glo® 3/7 Assay is a luminescent assay that measures caspase-3 and -7 activities in purified enzyme preparations or cultures of adherent or suspension cells. The assay provides a proluminescent caspase-3/7 substrate, which contains the tetrapeptide sequence DEVD. This substrate is cleaved to release aminoluciferin, a substrate of luciferase used in the production of light. Addition of the single Caspase-Glo® 3/7 Reagent in an “add-mix-measure” format results in cell lysis, followed by caspase cleavage of the substrate and generation of a “glow-type” luminescent signal. This assay uses the MOLP-8 human multiple myeloma cell line, which is sensitive to MCL-1 inhibition.
Cell cultures were maintained between 0.2 and 2.0×10^6 cells/mL. The cells were harvested by collection in 50 mL conical tubes. The cells were then pelleted at 500 g for 5 mins before removing supernatant and resuspension in fresh pre-warmed culture medium. The cells were counted and diluted as needed.
The assay reagent was prepared by transferring the buffer solution to the substrate vial and mixing. The solution may be stored for up to 1 week at 4° C. with negligible loss of signal.
Compounds were delivered in assay-ready plates (Proxiplate) and stored at −20° C. Assays always include 1 reference compound plate containing reference compounds. The plates were spotted with 40 nL of compounds (0.5% DMSO final in cells; serial dilution; 30 μM highest conc. 1/3 dilution, 10 doses, duplicates). […] The plates were then sealed and measured after 30 minutes.
The activity of a test compound was calculated as percent change in apoptosis induction as follows: […]

[2] = target: Myeloid Cell Leukemia 1 (Mcl-1) (Homo sapiens, UniProt Q07820); assay: Terbium labeled Mcl-1 HTRF binding assay utilizing the Cy5-labeled BIM BH3 peptide
Protocol: Terbium labeled Myeloid Cell Leukemia 1(Mcl-1) homogeneous time-resolved fluorescence (HTRF) binding assay utilizing the BIM BH3 peptide (H2N—(C/Cy5Mal) WIAQELRRIGDEFN-OH) as the binding partner for Mcl 1.
This assay evaluated inhibition of the BH3 domain: Mcl-1 interaction by measuring the displacement of Cy5-labeled BIM BH3 peptide (H2N—(C/Cy5Mal) WIAQELRRIGDEFN-OH) in the HTRF assay format.
The following assay and stock buffers were prepared for use in the assay: (a) Stock buffer: 10 mM Tris—HCl, pH=7.5+150 mM NaCl, filtered, sterilized, and stored at 4° C.; and (b) 1X assay buffer, where the following ingredients were added fresh to stock buffer: 2 mM dithiothreitol (DTT), 0.0025% Tween-20, 0.1 mg/mL bovine serum albumin (BSA). The 1X Tb—Mcl-1+Cy5 Bim peptide solution was prepared by diluting the protein stock solution using the 1X assay buffer (b) to 25 pM Tb—Mcl-1 and 8 nM Cy5 Bim peptide.
Using the Acoustic ECHO, 100 nL of 100x test compound(s) were dispensed into individual wells of a white 384-well Perkin Elmer Proxiplate, for a final compound concentration of 1x and final DMSO concentration of 1%. Inhibitor control and neutral control (NC, 100 nL of 100% DMSO) were stamped into columns 23 and 24 of assay plate, respectively. Into each well of the plate was then dispensed 10 μL of the 1X Tb—Mcl-1+Cy5 Bim peptide solution. The plate was centrifuged with a cover plate at 1000 rpm for 1 minute, then incubated for 60 minutes at room temperature with plates covered. The TR-FRET signal was read on an BMG PHERAStar FSX MicroPlate Reader at room temperature using the HTRF optic module (HTRF: excitation: 337 nm, light source: laser, emission A: 665 nm, emission B: 620 nm, integration start: 60 μs, integration time: 400 μs).
The BMG PHERAStar FSX MicroPlate Reader was used to measure fluorescence intensity at two emission wavelengths—665nm and 620 nm—and report relative fluorescence units (RFU) for both emissions, as well as a ratio of the emissions (665 nm/620 nm)*10,000. The RFU values were normalized to percent inhibition as follows:
% inhibition=(((NC−IC)−(compound−IC))/(NC−IC))*100
where IC (inhibitor control, low signal)=mean signal of 1X Tb—MCl-1+Cy5 Bim peptide+inhibitor control or 100% inhibition of Mcl-1; NC (neutral control, high signal)=mean signal 1X Tb—MCl-1+Cy5 Bim peptide with DMSO only or 0% inhibition An 11-point dose response curve was generated to determine IC50 values (using GenData) based on the following equation:
Y=Bottom+(Top−Bottom)/(1+10((logIC50−X)*HillSlope))
where Y=% inhibition in the presence of X inhibitor concentration; Top=100% inhibition derived from the IC (mean signal of Mcl-1+inhibitor control); Bottom=0% inhibition derived from the NC (mean signal of Mcl-1+DMSO); Hillslope=Hill coefficient; and IC50=concentration of compound with 50% inhibition in relation to top/neutral control (NC).
In this assay [L]=8 nM and Kd=10 nM

[3] = 6 h, read-out: MOLP8 Caspase 3/7 AC50 at 6 h
[4] = 12 h, read-out: MOLP8 Caspase 3/7 AC50 at 12 h
[5] = 22 h, read-out: MOLP8 Caspase 3/7 AC50 at 22 h
[6] = Ki=IC50/(1+[L]/Kd), [L]=8 nM, Kd=10 nM, first table (before recalibration of the equipment)
[7] = values obtained after recalibration of the equipment, averaged over several runs

Sequence of Myeloid Cell Leukemia 1 (Mcl-1) (Q07820 whole entry): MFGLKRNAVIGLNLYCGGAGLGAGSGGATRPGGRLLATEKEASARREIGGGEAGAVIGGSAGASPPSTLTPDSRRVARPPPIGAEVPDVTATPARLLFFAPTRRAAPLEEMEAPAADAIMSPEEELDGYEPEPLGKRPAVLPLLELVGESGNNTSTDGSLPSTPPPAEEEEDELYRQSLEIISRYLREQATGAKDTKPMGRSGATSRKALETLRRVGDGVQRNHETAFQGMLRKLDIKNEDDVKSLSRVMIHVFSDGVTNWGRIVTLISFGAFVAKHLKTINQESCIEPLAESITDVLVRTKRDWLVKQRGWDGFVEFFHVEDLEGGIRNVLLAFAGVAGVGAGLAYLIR

Structure (SMILES) | AC50 (MOLP8 cells; [3]) [nM] | AC50 (MOLP8 cells; [4]) [nM] | AC50 (MOLP8 cells; [5]) [nM] | AC50 [1] [nM] | Ki [2, 6] [nM] | Ki [2, 7] [nM]
Cc1c2c(nn1C)CS(=O)(=O)Cc1cc(n(C)n1)CSc1cc(c3ccccc3c1)OCCCc1c(C(=O)O)n(C)c3c-2c(Cl)ccc13 (single isomer, unassigned) [Compound 4] | 18600 | 20200 | 21600 | 14100 | 1.7 | 3
Cc1c2c(nn1C)CS(=O)(=O)Cc1cc(n(C)n1)CSc1cc(c3ccccc3c1)OCCCc1c(C(=O)O)n(C)c3c-2c(Cl)ccc13 (single isomer, unassigned) [Compound 3] | 680 | 620 | 540 | 400 | – | 0.04
Cc1c2c(nn1C)CN(C)Cc1cc(n(C)n1)CS(=O)(=O)c1cc(c3ccccc3c1)OCCCc1c(C(=O)O)n(C)c3c-2c(Cl)ccc13 (single isomer, unassigned) [Compound 2] | > 30200 | > 30200 | > 30200 | – | 86.3 | 153
Cc1c2c(nn1C)CN(C)Cc1cc(n(C)n1)CS(=O)(=O)c1cc(c3ccccc3c1)OCCCc1c(C(=O)O)n(C)c3c-2c(Cl)ccc13 (single isomer, unassigned) [Compound 1] | 4470 | 5580 | 5750 | 3900 | 0.62 | 0.56
